Consider 19 compounds from patent publication US9023851B2 (Merck Patent GmbH, priority 2010, dated 2015).

Structures are written as SMILES.

For orientation: IC50 means the concentration at which inhibition is half-maximal.

Holding throughout (type): biochemical
The target of one assay is T1, Src (Homo sapiens, UniProt P12931).
T1 construct: purchased Carna Bioscience, Kobe, Japan
Nature of the assay: cSrc enzymatic assay (Caliper LifeSciences technology). Here is the method:
(§1) Enzymatic Assays Using the Caliper LifeSciences Technology
(§2) The assays described here are performed on the Caliper Life Sciences LC3000 system This technology provides data on enzyme activity via measurement of the relative amounts of phosphorylated or unphosphorylated fluorescently labelled substrate peptide at the end of an enzymatic reaction. These different states of peptide are resolved by applying a potential difference across the sample. The presence of the charged phosphate group on the product (as opposed to the substrate) causes a different peptide mobility between the two peptides. This is visualized by excitation of the fluorescent label on the substrate and product peptides and represented as peaks within the analysis software.
(§3) In order to measure inhibitor activity of kinase inhibitors on this technology, a TTP Mosquito liquid handling instrument is used to place 0.25 ul of the appropriate concentration of inhibitor in 100% DMSO (for a dose response curve calculation) into each well of a 384-well plate. To this reaction components are added to a final volume of 25 ul. The table below indicates the sequences and concentrations for the assays described in this report. Standard components are 1 mM DTT (Sigma, D0632), 1 mM MgCl2 (Sigma, M1028), 100 mM HEPES pH 7.5 (Calbiochem, 391338), 0.015% Brij-35 (Sigma, B4184).
(§4) The reaction is incubated for 90 min at 25 C, and then stopped by the addition of 70 ul of Stop buffer (100 mM HEPES pH 7.5, 0.015% Brij-35, 10 mM EDTA (Sigma, E7889)).
(§5) The plate is read on a Caliper LC 3000 in an Off-Chip mobility shift assay format, on a 12-sipper chip. Unphosphorylated substrate and phosphorylated product peptide resolve as separate peaks allowing direct measurement of percentage of conversion of substrate to product. The percent conversion can be plotted against concentration of inhibitor to produce a sigmoidal dose response curve, from which an IC50 can be calculated using GeneData Condoseo or a similar product. Cellular activity assays

Another assay addresses T2, ZAP-70 (Homo sapiens, UniProt P43403).
T2 construct: purchased BPS Bioscience, CA, USA
T2 sequence (P43403 1-619): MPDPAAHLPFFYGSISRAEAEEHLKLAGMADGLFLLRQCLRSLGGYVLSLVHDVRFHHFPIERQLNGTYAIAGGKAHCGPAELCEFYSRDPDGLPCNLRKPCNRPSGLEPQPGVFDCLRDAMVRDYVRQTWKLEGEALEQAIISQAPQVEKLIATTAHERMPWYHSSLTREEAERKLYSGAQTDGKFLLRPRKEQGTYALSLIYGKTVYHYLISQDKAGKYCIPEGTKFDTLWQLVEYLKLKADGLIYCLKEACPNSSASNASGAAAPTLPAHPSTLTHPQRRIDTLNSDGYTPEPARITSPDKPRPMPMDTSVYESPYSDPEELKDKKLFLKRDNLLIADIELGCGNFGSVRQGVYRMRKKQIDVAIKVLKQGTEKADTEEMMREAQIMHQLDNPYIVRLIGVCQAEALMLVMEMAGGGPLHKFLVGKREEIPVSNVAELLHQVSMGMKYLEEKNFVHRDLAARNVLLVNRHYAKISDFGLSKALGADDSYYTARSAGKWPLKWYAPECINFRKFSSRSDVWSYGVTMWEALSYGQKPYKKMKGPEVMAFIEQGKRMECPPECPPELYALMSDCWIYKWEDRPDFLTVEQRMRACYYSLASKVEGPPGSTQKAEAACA
Nature of the assay: Zap70 enzymatic assay (Caliper LifeSciences technology). Here is the method:
as §1, §2, §3, §4, §5

In a further assay the target is T3, KDR (Homo sapiens, UniProt P35968).
T3 construct: purchased BPS Bioscience, CA, USA
T3 sequence (P35968 20-1356): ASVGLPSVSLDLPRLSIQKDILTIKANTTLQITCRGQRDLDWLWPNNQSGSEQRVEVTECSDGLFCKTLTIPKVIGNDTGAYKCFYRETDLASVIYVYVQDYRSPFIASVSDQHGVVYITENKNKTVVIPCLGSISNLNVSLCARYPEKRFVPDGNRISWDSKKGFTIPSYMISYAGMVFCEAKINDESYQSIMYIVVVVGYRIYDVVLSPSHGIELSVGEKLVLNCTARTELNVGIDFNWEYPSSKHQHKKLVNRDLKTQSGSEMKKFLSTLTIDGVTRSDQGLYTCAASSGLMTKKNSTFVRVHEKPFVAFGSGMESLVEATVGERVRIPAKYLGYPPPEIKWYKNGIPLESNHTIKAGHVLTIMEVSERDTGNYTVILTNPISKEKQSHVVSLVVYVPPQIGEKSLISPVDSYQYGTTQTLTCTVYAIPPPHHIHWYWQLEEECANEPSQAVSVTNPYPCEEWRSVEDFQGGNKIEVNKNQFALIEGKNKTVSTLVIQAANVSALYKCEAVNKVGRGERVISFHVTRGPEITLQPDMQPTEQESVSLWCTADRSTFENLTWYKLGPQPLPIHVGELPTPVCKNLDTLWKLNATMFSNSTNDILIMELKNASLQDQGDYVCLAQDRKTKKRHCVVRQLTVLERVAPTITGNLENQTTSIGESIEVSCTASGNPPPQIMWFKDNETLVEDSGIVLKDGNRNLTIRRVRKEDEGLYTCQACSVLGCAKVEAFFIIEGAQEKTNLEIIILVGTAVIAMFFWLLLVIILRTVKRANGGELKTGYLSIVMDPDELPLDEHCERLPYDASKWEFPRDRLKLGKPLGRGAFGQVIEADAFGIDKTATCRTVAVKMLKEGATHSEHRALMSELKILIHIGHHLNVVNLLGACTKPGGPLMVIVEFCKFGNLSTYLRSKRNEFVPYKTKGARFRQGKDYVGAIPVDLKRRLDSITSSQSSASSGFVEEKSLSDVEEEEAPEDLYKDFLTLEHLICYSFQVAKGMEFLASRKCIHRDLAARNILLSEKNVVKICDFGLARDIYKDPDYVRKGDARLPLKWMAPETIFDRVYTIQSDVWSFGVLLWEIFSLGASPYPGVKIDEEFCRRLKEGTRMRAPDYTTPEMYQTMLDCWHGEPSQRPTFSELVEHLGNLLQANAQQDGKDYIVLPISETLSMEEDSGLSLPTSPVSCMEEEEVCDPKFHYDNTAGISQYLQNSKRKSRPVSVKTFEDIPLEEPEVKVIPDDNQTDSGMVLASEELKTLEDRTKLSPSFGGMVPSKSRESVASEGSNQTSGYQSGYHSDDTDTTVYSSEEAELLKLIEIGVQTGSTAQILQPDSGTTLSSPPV
Nature of the assay: KDR enzymatic assay (Caliper LifeSciences technology). A digest of the protocol:
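Off-chip mobility-shift assay quantifying conversion of a fluorescent peptide substrate to phosphorylated product. Reactions in 100 mM HEPES pH 7.5, 1 mM DTT, 1 mM MgCl2, 0.015% Brij-35, 90 min at 25 C, stopped with EDTA. IC50 from sigmoidal fit of percent conversion versus inhibitor concentration.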

The target in another assay is T4, Syk (Homo sapiens, UniProt P43405).
T4 construct: purchased BPS Bioscience, CA, USA
Nature of the assay: Syk enzyme assay (flash plate / Caliper mobility shift). The method, boiled down:
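Flashplate format used 2.5 nM SYK, 400 nM biotinylated peptide and 10 µM ATP with 33P tracer, pH 7.5, 1 h at 30 °C, read by radioactivity. Caliper format ran 90 min at 25 °C in HEPES pH 7.5, reading percent peptide conversion by mobility shift. IC50s came from dose-response curves.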

T1 sequence (P12931 whole entry): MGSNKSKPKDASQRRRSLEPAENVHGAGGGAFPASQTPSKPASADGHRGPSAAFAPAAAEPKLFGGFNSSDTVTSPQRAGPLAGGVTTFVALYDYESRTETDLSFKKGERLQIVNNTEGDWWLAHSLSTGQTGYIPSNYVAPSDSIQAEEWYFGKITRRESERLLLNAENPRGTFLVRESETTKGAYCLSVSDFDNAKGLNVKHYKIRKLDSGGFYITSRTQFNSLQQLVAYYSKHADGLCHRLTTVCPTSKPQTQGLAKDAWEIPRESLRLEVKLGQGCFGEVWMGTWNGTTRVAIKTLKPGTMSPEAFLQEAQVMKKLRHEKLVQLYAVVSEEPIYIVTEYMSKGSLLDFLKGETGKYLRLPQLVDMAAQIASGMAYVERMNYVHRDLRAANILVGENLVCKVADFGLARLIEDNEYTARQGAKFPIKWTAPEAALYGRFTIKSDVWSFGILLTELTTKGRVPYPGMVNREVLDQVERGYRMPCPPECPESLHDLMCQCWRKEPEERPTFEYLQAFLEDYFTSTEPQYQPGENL

Turning to `Cc1cccc(Nc2nc3c(-c4ccc(N5CCOCC5)cc4)nccn3n2)c1` [Example C13, [8-(4-Morpholin-4-yl-phenyl)-[1,2,4]triazolo[1,5-a]pyrazin-2-yl]-m-tolyl-amine], the 50% inhibitory concentration (IC50) against Src fell in the range of 3 to 50 µM; on ZAP-70, 3 to 50 µM; against KDR, 0.3 to 3 µM; on Syk, 0.3 to 3 µM.
Regarding `Cn1ccnc1Sc1ccc(Nc2nc3c(-c4ccccc4)nccn3n2)cc1Cl` [Example C23, [3-Chloro-4-(1-methyl-1H-imidazol-2-ylsulfanyl)-phenyl]-(8-phenyl-[1,2,4]triazolo[1,5-a]pyrazin-2-yl)-amine], the concentration for half-maximal inhibition (IC50) was in the range of 3 to 50 µM against Src, 3 to 50 µM on ZAP-70, 0.3 to 3 µM against KDR and 0.3 to 3 µM at Syk.
For `COCCCNc1nccn2nc(Nc3cccc(C)c3)nc12` [Example C32, N^8-(3-Methoxy-propyl)-N^2-m-tolyl-[1,2,4]triazolo[1,5-a]pyrazine-2,8-diamine], the 50% inhibitory concentration (IC50) against Src, against ZAP-70, on KDR and on Syk was 3 to 50 µM in each case.
For `Cc1cc(C)cc(Nc2nc3c(NCCN)nccn3n2)c1` [Example C34, N^8-(2-Amino-ethyl)-N^2-(3,5-dimethyl-phenyl)-[1,2,4]triazolo[1,5-a]pyrazine-2,8-diamine], the half-inhibitory concentration (IC50) at Src, against ZAP-70, against KDR and on Syk was 3 to 50 µM in each case.
With `Cc1cc(C)cc(Nc2nc3c(NCCCN(C)C)nccn3n2)c1` [Example C35, N^8-(3-Dimethylamino-propyl)-N^2-(3,5-dimethyl-phenyl)-[1,2,4]triazolo[1,5-a]pyrazine-2,8-diamine], the IC50 on Src, on ZAP-70, against KDR and at Syk was 3 to 50 µM in each case.
Consider `Cc1cc(C)cc(Nc2nc3c(NCCCN4CCN(C)CC4)nccn3n2)c1` [Example C36, N^2-(3,5-Dimethyl-phenyl)-N^8-[3-(4-methyl-piperazin-1-yl)-propyl]-[1,2,4]triazolo[1,5-a]pyrazine-2,8-diamine], for which the IC50 on Src, against ZAP-70, at KDR and on Syk was 3 to 50 µM each time.
On to `FC(F)(F)c1cccc(Nc2nc3c(NCCCN4CCOCC4)nccn3n2)c1` [Example C42, N^8-(3-Morpholin-4-yl-propyl)-N^2-(3-trifluoromethyl-phenyl)-[1,2,4]triazolo[1,5-a]pyrazine-2,8-diamine], for which the IC50 on Src fell in the range of 3 to 50 µM; on ZAP-70, 0.3 to 3 µM; against KDR it was 3 to 50 µM; at Syk, 3 to 50 µM.
Turning to `Cc1cccc(Nc2nc3c(NCCCN4CCOCC4)nccn3n2)c1` [Example C47, N^8-(3-Morpholin-4-yl-propyl)-N^2-m-tolyl-[1,2,4]triazolo[1,5-a]pyrazine-2,8-diamine], the IC50 against Src, on ZAP-70, on KDR and at Syk was 3 to 50 µM each time.
Consider `Cc1cccc(Nc2nc3c(NCCCN4CCN(C)CC4)nccn3n2)c1` [Example C48, N^8-[3-(4-Methyl-piperazin-1-yl)-propyl]-N^2-m-tolyl-[1,2,4]triazolo[1,5-a]pyrazine-2,8-diamine], for which the IC50 against Src fell in the range of 3 to 50 µM; against ZAP-70, 0.3 to 3 µM; against KDR, 3 to 50 µM; at Syk, 3 to 50 µM.
On to `COc1cc(Nc2nc3c(-c4ccc(C(C)(C)C#N)cc4)nccn3n2)cc(OC)c1` [Example C256, 2-{4-[2-(3,5-Dimethoxy-phenylamino)-[1,2,4]triazolo[1,5-a]pyrazin-8-yl]-phenyl}-2-methyl-propionitrile], for which the IC50 is 0.3 to 3 µM against Src, 3 to 50 µM at ZAP-70, 0.3 to 3 µM against KDR and less than 0.3 µM at Syk.
Turning to `COc1cc(Nc2nc3c(-c4ccc5cccnc5c4)nccn3n2)cc(OC)c1` [Example C264, (3,5-Dimethoxy-phenyl)-(8-quinolin-7-yl-[1,2,4]triazolo[1,5-a]pyrazin-2-yl)-amine], the results for the IC50 against Src, on ZAP-70 and on Syk were 0.3 to 3 µM, 3 to 50 µM and less than 0.3 µM, respectively.
Regarding `Oc1cccc(-c2nccn3nc(Nc4ccc(N5CCOCC5)cc4)nc23)c1` [Example C269, 3-[2-(4-Morpholin-4-yl-phenylamino)-[1,2,4]triazolo[1,5-a]pyrazin-8-yl]-phenol], the IC50 is 0.3 to 3 µM against Src, 0.3 to 3 µM on ZAP-70, less than 0.3 µM against KDR and less than 0.3 µM at Syk.
`COc1cc(Nc2nc3c(-c4cccc(C(N)=O)c4)nccn3n2)cc(OC)c1` [Example C276, 3-[2-(3,5-Dimethoxy-phenylamino)-[1,2,4]triazolo[1,5-a]pyrazin-8-yl]-benzamide]: the results for the IC50 on Src, against KDR and at Syk were 0.3 to 3 µM, less than 0.3 µM and less than 0.3 µM, respectively.
Consider `NC(=O)c1cccc(-c2nccn3nc(Nc4ccc(N5CCOCC5)cc4)nc23)c1` [Example C277, 3-[2-(4-Morpholin-4-yl-phenylamino)-[1,2,4]triazolo[1,5-a]pyrazin-8-yl]-benzamide], for which the IC50 against Src was 0.3 to 3 µM; at KDR it was less than 0.3 µM; at Syk, less than 0.3 µM.
As to `COc1cc(Nc2nc3c(-c4cnn(C)c4)nccn3n2)cc(OC)c1` [Example C300, (3,5-Dimethoxy-phenyl)-[8-(1-methyl-1H-pyrazol-4-yl)-[1,2,4]triazolo[1,5-a]pyrazin-2-yl]-amine], the IC50 against Src is 0.3 to 3 µM; on ZAP-70, 3 to 50 µM; on KDR, 0.3 to 3 µM; on Syk, less than 0.3 µM.
For `COc1cc(Nc2nc3c(-c4cn[nH]c4)nccn3n2)cc(OC)c1` [Example C301, (3,5-Dimethoxy-phenyl)-[8-(1H-pyrazol-4-yl)-[1,2,4]triazolo[1,5-a]pyrazin-2-yl]-amine], the IC50 on Src is 0.3 to 3 µM; at ZAP-70, 3 to 50 µM; at KDR, 0.3 to 3 µM; on Syk it was less than 0.3 µM.
Consider `COc1cc(Nc2nc3c(-c4cccc5[nH]ncc45)nccn3n2)cc(OC)c1` [Example C303, (3,5-Dimethoxy-phenyl)-[8-(1H-indazol-4-yl)-[1,2,4]triazolo[1,5-a]pyrazin-2-yl]-amine], for which the IC50 is less than 0.3 µM at Src, less than 0.3 µM against ZAP-70, 0.3 to 3 µM at KDR and less than 0.3 µM on Syk.
As for `Cn1ncc2cc(-c3nccn4nc(Nc5ccc(N6CCOCC6)cc5)nc34)ccc21` [Example D2, [8-(1-Methyl-1H-indazol-5-yl)-[1,2,4]triazolo[1,5-a]pyrazin-2-yl]-(4-morpholin-4-yl-phenyl)-amine], the IC50 is 0.3 to 3 µM against Src, 3 to 50 µM at ZAP-70, less than 0.3 µM against KDR and less than 0.3 µM on Syk.
On to `CN(C)c1ccc(-c2nccn3nc(Nc4ccc(N5CCOCC5)cc4)nc23)cn1` [Example D3, [8-(6-Dimethylamino-pyridin-3-yl)-[1,2,4]triazolo[1,5-a]pyrazin-2-yl]-(4-morpholin-4-yl-phenyl)-amine], for which the concentration for half-maximal inhibition (IC50) was 0.3 to 3 µM at Src, 3 to 50 µM on ZAP-70, less than 0.3 µM against KDR and less than 0.3 µM at Syk.
